Experimental data published in ChEMBL document CHEMBL4219271, “Synthesis and anti-proliferative activity of allogibberic acid derivatives containing 1,2,3-triazole pharmacophore” (Bioorg Med Chem Lett, 2018).

How the values were obtained:
A549 = assay: Cytotoxicity against human A549 cells assessed as decrease in cell viability after 4 days by MTT assay; assay type: functional, cell-based; conditions: A549, 96 h
SW480 [1] = assay: Potency index, ratio of cisplatin IC50 to compound IC50 for human SW480 cells; assay type: functional
HL-60 = assay: Cytotoxicity against human HL60 cells assessed as decrease in cell viability after 4 days by MTT assay; assay type: functional, cell-based; conditions: HL-60, 96 h
SMMC-7721 = assay: Cytotoxicity against human SMMC7721 cells assessed as decrease in cell viability after 4 days by MTT assay; assay type: functional, cell-based; conditions: SMMC-7721, 96 h
SW480 [2] = assay: Cytotoxicity against human SW480 cells assessed as decrease in cell viability after 4 days by MTT assay; assay type: functional, cell-based; conditions: SW480, 96 h
MCF7 [3] = assay: Cytotoxicity against human MCF7 cells assessed as decrease in cell viability after 4 days by MTT assay; assay type: functional, cell-based; conditions: MCF7, 96 h
MCF7 [4] = assay: Potency index, ratio of cisplatin IC50 to compound IC50 for human MCF7 cells; assay type: functional

Compound	IC50 (A549)	Ratio IC50 (SW480 [1])	IC50 (HL-60)	IC50 (SMMC-7721)	IC50 (SW480 [2])	IC50 (MCF7 [3])	Ratio IC50 (MCF7 [4])
C=C1C(=O)[C@]23C[C@@]1(O)CC[C@H]2c1ccc(O)c(C)c1[C@@H]3Cn1cc(-c2ccc(Br)cc2)nn1	1140 nM	36	560 nM	1300 nM	310 nM	270 nM	
C=C1C(=O)[C@]23C[C@@]1(O)CC[C@H]2c1ccc(OS(=O)(=O)c2ccc(C)cc2)c(C)c1[C@@H]3Cn1cc(-c2ccc(OC)cc2)nn1	1470 nM		1020 nM	1720 nM	1640 nM	310 nM	37
C=C1C(=O)[C@]23C[C@@]1(O)CC[C@H]2c1ccc(O)c(C)c1[C@@H]3Cn1cc(-c2ccc(Cl)cc2)nn1	640 nM	29	690 nM	670 nM	280 nM	2470 nM	
C=C1C(=O)[C@]23C[C@@]1(O)CC[C@H]2c1ccc(O)c(C)c1[C@@H]3Cn1cc(-c2ccccn2)nn1	1570 nM	20	1970 nM	1270 nM	410 nM	2240 nM	
C=C1C(=O)[C@]23C[C@@]1(O)CC[C@H]2c1ccc(O)c(C)c1[C@@H]3Cn1cc(-c2ccc(OC)cc2)nn1	1250 nM	39	1150 nM	860 nM	220 nM	1710 nM	
C=C1C(=O)[C@]23C[C@@]1(O)CC[C@H]2c1ccc(OS(=O)(=O)c2ccc(C)cc2)c(C)c1[C@@H]3Cn1cc(-c2ccc(F)cc2)nn1	1950 nM		1290 nM	4280 nM	1630 nM	330 nM	35
C=C1C(=O)[C@]23C[C@@]1(O)CC[C@H]2c1ccc(O)c(C)c1[C@@H]3Cn1cc(-c2ccccc2)nn1	1160 nM	31	750 nM	1320 nM	260 nM	1740 nM	
C=C1C(=O)[C@]23C[C@@]1(O)CC[C@H]2c1ccc(O)c(C)c1[C@@H]3Cn1cc(-c2ccc(C(F)(F)F)cc2)nn1	1110 nM	22	720 nM	1440 nM	370 nM	1840 nM	
C=C1C(=O)[C@]23C[C@@]1(O)CC[C@H]2c1ccc(OS(=O)(=O)c2ccc(C)cc2)c(C)c1[C@@H]3Cn1cc(-c2ccc(Cl)cc2)nn1	1870 nM		1260 nM	6180 nM	2390 nM	1440 nM	8
C=C1C(=O)[C@]23C[C@@]1(O)CC[C@H]2c1ccc(OS(=O)(=O)c2ccc(C)cc2)c(C)c1[C@@H]3Cn1cc(-c2ccc(C)cc2)nn1	1830 nM		1110 nM	4410 nM	1460 nM	320 nM	36
C=C1C(=O)[C@]23C[C@@]1(O)CC[C@H]2c1ccc(OS(=O)(=O)c2ccc(C)cc2)c(C)c1[C@@H]3Cn1cc(-c2ccc(Br)cc2)nn1	1630 nM		1020 nM	4320 nM	1590 nM	250 nM	46
C=C1C(=O)[C@]23C[C@@]1(O)CC[C@H]2c1ccc(O)c(C)c1[C@@H]3Cn1cc(-c2ccc(C)cc2)nn1	1260 nM	25	830 nM	920 nM	330 nM	370 nM	
Cc1c(O)ccc2c1[C@H](Cn1cc(-c3ccc(C(F)(F)F)cc3)nn1)[C@@]13CC(=O)[C@@](C)(CC[C@@H]21)C3	> 20000 nM		> 20000 nM	> 20000 nM	> 20000 nM	> 20000 nM	
Cc1c(O)ccc2c1[C@H](Cn1cc(-c3ccccn3)nn1)[C@@]13CC(=O)[C@@](C)(CC[C@@H]21)C3	> 20000 nM		> 20000 nM	> 20000 nM	> 20000 nM	> 20000 nM	
C=C1C[C@]23C[C@@]1(O)CC[C@H]2c1ccc(O)c(C)c1[C@@H]3Cn1cc(-c2ccc(C)cc2)nn1	> 20000 nM		> 20000 nM	> 20000 nM	> 20000 nM	> 20000 nM	
COc1ccc(-c2cn(C[C@H]3c4c(ccc(O)c4C)[C@@H]4CC[C@@]5(C)C[C@]43CC5=O)nn2)cc1	> 20000 nM		> 20000 nM	> 20000 nM	> 20000 nM	> 20000 nM	
Cc1ccc(S(=O)(=O)Oc2ccc3c(c2C)[C@H](Cn2cc(-c4ccccc4)nn2)[C@@]24CC(=O)[C@@](C)(CC[C@@H]32)C4)cc1	> 20000 nM		> 20000 nM	> 20000 nM	> 20000 nM	> 20000 nM	
C=C1C[C@]23C[C@@]1(O)CC[C@H]2c1ccc(O)c(C)c1[C@@H]3Cn1cc(-c2ccc(OC)cc2)nn1	> 20000 nM		> 20000 nM	> 20000 nM	> 20000 nM	> 20000 nM	
Cc1c(O)ccc2c1[C@H](Cn1cc(-c3ccccc3)nn1)[C@@]13CC(=O)[C@@](C)(CC[C@@H]21)C3	> 20000 nM		> 20000 nM	> 20000 nM	> 20000 nM	> 20000 nM	
C=C1C(=O)[C@]23C[C@@]1(O)CC[C@H]2c1ccc(OS(=O)(=O)c2ccc(C)cc2)c(C)c1[C@@H]3Cn1cc(-c2ccccn2)nn1	2310 nM		1810 nM	2830 nM	1970 nM	320 nM	36
C=C1C[C@]23C[C@@]1(O)CC[C@H]2c1ccc(OS(=O)(=O)c2ccc(C)cc2)c(C)c1[C@@H]3Cn1cc(-c2ccc(Br)cc2)nn1	> 20000 nM		> 20000 nM	> 20000 nM	> 20000 nM	> 20000 nM	
